Assay results published in patent US20230113037A1 (Bayer Aktiengesellschaft, priority 2019, published 2023).
Where “and” joins values, the source holds several entries; their conditions need not be identical. Identical values can stand only once. Like-named read-outs stand apart in the source and are kept apart here.

Tests used:
AHR [1] = target: T1, AHR (Homo sapiens, UniProt P35869); experiment: In vitro assay 1: antagonism in human cell line (AHR transactivation, firefly luciferase reporter, kynurenic acid prestimulated); type: cell-based; details: AHR Antagonism Human IC50 [M]
T1 construct: U87 MG glioblastoma cells (ATCC #HTB-14) endogenously expressing AHR; endogenous in cells; host or cells: U87 MG glioblastoma cells (ATCC #HTB-14)
T1 sequence (P35869 11-848): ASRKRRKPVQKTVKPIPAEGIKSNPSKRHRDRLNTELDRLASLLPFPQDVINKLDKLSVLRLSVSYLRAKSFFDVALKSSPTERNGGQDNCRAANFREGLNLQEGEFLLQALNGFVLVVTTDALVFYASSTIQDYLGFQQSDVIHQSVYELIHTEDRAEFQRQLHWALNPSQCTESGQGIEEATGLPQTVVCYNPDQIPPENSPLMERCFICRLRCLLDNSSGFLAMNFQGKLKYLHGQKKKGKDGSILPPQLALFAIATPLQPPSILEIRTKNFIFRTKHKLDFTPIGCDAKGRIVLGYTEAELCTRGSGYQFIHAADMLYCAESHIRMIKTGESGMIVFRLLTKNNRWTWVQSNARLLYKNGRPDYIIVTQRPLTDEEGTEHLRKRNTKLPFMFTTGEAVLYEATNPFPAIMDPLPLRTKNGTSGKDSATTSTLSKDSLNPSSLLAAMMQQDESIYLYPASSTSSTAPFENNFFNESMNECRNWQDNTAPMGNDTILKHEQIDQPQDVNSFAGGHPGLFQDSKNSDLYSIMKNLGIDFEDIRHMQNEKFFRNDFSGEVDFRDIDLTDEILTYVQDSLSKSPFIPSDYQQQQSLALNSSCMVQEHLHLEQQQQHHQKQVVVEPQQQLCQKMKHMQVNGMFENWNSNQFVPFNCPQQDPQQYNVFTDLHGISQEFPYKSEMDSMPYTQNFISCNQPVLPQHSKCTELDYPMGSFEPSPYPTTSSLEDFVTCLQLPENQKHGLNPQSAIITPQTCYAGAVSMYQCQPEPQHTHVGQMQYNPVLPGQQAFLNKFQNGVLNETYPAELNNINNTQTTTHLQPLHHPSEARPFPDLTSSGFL
In short: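 Antagonism measured as loss of kynurenic acid-driven firefly luciferase from DRE reporter in stably transfected U87 MG cells; constitutive Renilla signal monitors cytotoxicity. Positive/negative control normalization, staurosporine 5 μM with 150 μM kynurenic acid as inhibition control; replicates given as mean or median.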

AHR [2] = target: T2, AHR (Mus musculus, UniProt P30561); experiment: In vitro assay 3: antagonism in mouse cell line (AHR transactivation, firefly luciferase reporter, kynurenic acid prestimulated); type: cell-based
T2 sequence (P30561 1-848 P471L/N533S/M589L): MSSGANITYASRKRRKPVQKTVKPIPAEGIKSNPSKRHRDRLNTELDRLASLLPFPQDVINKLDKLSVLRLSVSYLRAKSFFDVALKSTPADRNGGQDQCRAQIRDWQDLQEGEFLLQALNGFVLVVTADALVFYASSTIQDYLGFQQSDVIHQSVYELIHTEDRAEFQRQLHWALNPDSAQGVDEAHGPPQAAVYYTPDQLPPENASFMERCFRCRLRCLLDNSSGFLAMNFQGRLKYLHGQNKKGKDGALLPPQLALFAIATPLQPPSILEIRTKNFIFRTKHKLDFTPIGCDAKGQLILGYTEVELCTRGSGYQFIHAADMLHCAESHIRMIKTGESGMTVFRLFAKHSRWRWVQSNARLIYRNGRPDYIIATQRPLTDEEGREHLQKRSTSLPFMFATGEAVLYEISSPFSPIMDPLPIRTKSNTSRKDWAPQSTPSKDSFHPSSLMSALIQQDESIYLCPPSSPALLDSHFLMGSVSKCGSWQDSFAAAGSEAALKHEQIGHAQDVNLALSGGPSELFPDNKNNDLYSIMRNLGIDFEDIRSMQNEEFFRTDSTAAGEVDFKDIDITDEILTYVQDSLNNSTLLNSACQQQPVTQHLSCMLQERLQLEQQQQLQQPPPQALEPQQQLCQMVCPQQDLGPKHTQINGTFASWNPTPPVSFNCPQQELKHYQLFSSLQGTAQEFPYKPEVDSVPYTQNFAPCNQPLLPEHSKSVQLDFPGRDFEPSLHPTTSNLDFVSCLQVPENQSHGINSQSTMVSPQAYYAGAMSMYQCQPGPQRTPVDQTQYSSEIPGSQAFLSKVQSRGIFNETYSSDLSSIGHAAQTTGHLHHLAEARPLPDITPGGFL
In short: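 Luminescence from an AHR-dependent DRE-luciferase reporter, stably integrated in mouse cells, quantifies blockade of kynurenic acid-driven activation. Unstimulated cells mark maximal inhibition; normalization uses both control types, and multiply tested compounds carry mean or median values.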

[3] = mouse Hepa 1c1c7 cells, 200 μM kynurenic acid, 20 hours, read-out: AHR Antagonism Mouse IC50
[4] = Hepa 1c1c7 cells, 200 μM kynurenic acid, 20 hours, firefly luciferase reporter, read-out: AHR Antagonism Mouse IC50

IC50 (AHR [1])	IC50 (AHR [2]; [3])	IC50 (AHR [1]; firefly luciferase reporter)	IC50 (AHR [2]; [4])	Compound	IC50 (AHR [2]; read-out: AHR Antagonism Mouse IC50, mouse Hepa 1c1c7 cells, 200 μM kynurenic acid, 20 hours)
1.84e-08 M	14.3 nM	–	–	COc1ccc(-c2nc3c4cccc(F)c4nc(N[C@@H]4CNCCNC4=O)n3n2)cc1 [Example 426, (6R)-6-{[7-fluoro-2-(4-methoxyphenyl)[1,2,4]triazolo[1,5-c]quinazolin-5-yl]amino}-1,4-diazepan-5-one]	–
1.02e-06 M	104 nM	–	–	O=C1NCCCC[C@@H]1Nc1nc2ccccc2c2nc(-c3ccncc3F)nn12 [Example 481, (3S)-3-{[2-(3-fluoropyridin-4-yl)[1,2,4]triazolo[1,5-c]quinazolin-5-yl]amino}azepan-2-one]	–
5.33e-06 M	2030 nM	–	–	Cn1cc(-c2nc3c4ccccc4nc(NC4CNCCNC4=O)n3n2)cn1 (racemic) [Example 22, 6-{[2-(1-methyl-1H-pyrazol-4-yl)[1,2,4]triazolo[1,5-c]quinazolin-5-yl]amino}-1,4-diazepan-5-one]	–
1.01e-07 M	7750 nM	–	–	Cc1cc(C(F)F)c2nc(N[C@@H]3CCCCNC3=O)n3nc(-c4cnn(C)c4)nc3c2c1 [Example 406, (3R)-3-{[7-(difluoromethyl)-9-methyl-2-(1-methyl-1H-pyrazol-4-yl)[1,2,4]triazolo[1,5-c]quinazolin-5-yl]amino}azepan-2-one]	–
1.32e-09 M	6.14 nM	–	–	Cn1cc(-c2nc3c4cccc(C(F)(F)F)c4nc(N[C@@H]4COCCNC4=O)n3n2)cn1 [Example 732, (6R)-6-{[2-(1-methyl-1H-pyrazol-4-yl)-7-(trifluoromethyl)[1,2,4]triazolo[1,5-c]quinazolin-5-yl]amino}-1,4-oxazepan-5-one]	–
–	–	2.69e-09 M	5.95 nM	CC(C)n1cc(-c2nc3c4cccc(Br)c4nc(N[C@@H]4CNCCNC4=O)n3n2)cn1 [Example 981, (6R)-6-({7-bromo-2-[1-(propan-2-yl)-1H-pyrazol-4-yl][1,2,4]triazolo[1,5-c]quinazolin-5-yl}amino)-1,4-diazepan-5-one]	–
1.25e-08 M	2.91 nM	–	–	CC(C)[C@@H](Nc1nc2c(Br)cccc2c2nc(-c3cnn(C)c3)nn12)C(N)=O [Example 578, N^2-[7-bromo-2-(1-methyl-1H-pyrazol-4-yl)[1,2,4]triazolo[1,5-c]quinazolin-5-yl]-D-valinamide]	–
1.33e-08 M	53.1 nM	–	–	O=C1NCCCC[C@H]1Nc1nc2c(C(F)(F)F)cccc2c2nc(-c3cn[nH]c3)nn12 [Example 677, (3R)-3-{[2-(1H-pyrazol-4-yl)-7-(trifluoromethyl)[1,2,4]triazolo[1,5-c]quinazolin-5-yl]amino}azepan-2-one]	–
–	–	4.46e-09 M	11.1 nM	COc1ccc(-c2nc3c4cccc(S(=O)(=O)C(C)C)c4nc(N[C@@H]4CCCCNC4=O)n3n2)cc1 [Example 843, (3R)-3-{[2-(4-methoxyphenyl)-7-(propane-2-sulfonyl)[1,2,4]triazolo[1,5-c]quinazolin-5-yl]amino}azepan-2-one]	–
–	–	9.42e-09 M	20.6 nM	O=C1NCCNC[C@H]1Nc1nc2c(Br)cccc2c2nc(-c3cnn(CC4CCC4)c3)nn12 [Example 982, (6R)-6-({7-bromo-2-[1-(cyclobutylmethyl)-1H-pyrazol-4-yl][1,2,4]triazolo[1,5-c]quinazolin-5-yl}amino)-1,4-diazepan-5-one]	–
–	–	6.49e-08 M	95 nM	C[C@@H](Nc1nc2c(Br)cccc2c2nc(-c3cnn(C)c3)nn12)C(=O)N1CCNCC1 [Example 985, (2R)-2-{[7-bromo-2-(1-methyl-1H-pyrazol-4-yl)[1,2,4]triazolo[1,5-c]quinazolin-5-yl]amino}-1-(piperazin-1-yl)propan-1-one hydrogen chloride (1/1)]	–
5.18e-08 M	34 nM	–	–	O=C1NCCCC[C@H]1Nc1nc2ccccc2c2nc(-c3cnn(C4COC4)c3)nn12 [Example 595, (3R)-3-({2-[1-(oxetan-3-yl)-1H-pyrazol-4-yl][1,2,4]triazolo[1,5-c]quinazolin-5-yl}amino)azepan-2-one]	–
1.21e-06 M	7260 nM	–	–	Cn1cc(-c2nc3c4ccccc4nc(NC4CCCNC4=O)n3n2)cn1 (centres unmarked) [Example 13, 3-{[2-(1-methyl-1H-pyrazol-4-yl)[1,2,4]triazolo[1,5-c]quinazolin-5-yl]amino}piperidin-2-one]	–
–	–	> 2e-05 M	19600 nM and > 20000 nM	Cn1cc(-c2nc3c4cccc(Br)c4nc(N[C@H]4CS(=N)(=O)CCNC4=O)n3n2)cn1 (single isomer, unassigned) [Example 856]	–
1.5e-09 M	0.316 nM	–	–	CN(C)c1ccc(-c2nc3c4ccccc4nc(N[C@@H]4CCCCNC4=O)n3n2)cc1 [Example 128, (3R)-3-({2-[4-(dimethylamino)phenyl][1,2,4]triazolo[1,5-c]quinazolin-5-yl}amino)azepan-2-one]	–
–	–	3.09e-08 M	7.12 nM	COc1ccc(-c2nc3c4cccc(Br)c4nc(N[C@H]4CNCCNC4=O)n3n2)cc1 [Example 972, (6S)-6-{[7-bromo-2-(4-methoxyphenyl)[1,2,4]triazolo[1,5-c]quinazolin-5-yl]amino}-1,4-diazepan-5-one]	–
6.02e-10 M	0.346 nM	–	–	CC[C@@H](Nc1nc2ccccc2c2nc(-c3ccc(C#N)cc3)nn12)C(N)=O [Example 386, (2R)-2-{[2-(4-cyanophenyl)[1,2,4]triazolo[1,5-c]quinazolin-5-yl]amino}butanamide]	–
7.15e-07 M	398 nM	–	–	O=C1NCCNC[C@H]1Nc1nc2ccccc2c2nc(-c3ccco3)nn12 [Example 258, (6R)-6-{[2-(furan-2-yl)[1,2,4]triazolo[1,5-c]quinazolin-5-yl]amino}-1,4-diazepan-5-one]	–
6.68e-10 M	0.326 nM	–	–	COc1ccc(-c2nc3c4ccccc4nc(N[C@@H]4CCCCNC4=O)n3n2)cc1C [Example 627, (3R)-3-{[2-(4-methoxy-3-methylphenyl)[1,2,4]triazolo[1,5-c]quinazolin-5-yl]amino}azepan-2-one]	–
4.83e-10 M	0.861 nM	–	–	CSc1ccc(-c2nc3c4ccccc4nc(N[C@@H]4CCCCNC4=O)n3n2)c(F)c1 [Example 630, (3R)-3-({2-[2-fluoro-4-(methylsulfanyl)phenyl][1,2,4]triazolo[1,5-c]quinazolin-5-yl}amino)azepan-2-one]	–

Compound	IC50 (AHR [1])	IC50 (AHR [2]; [3])	IC50 (AHR [1]; firefly luciferase reporter)	IC50 (AHR [2]; [4])	IC50 (AHR [2]; read-out: AHR Antagonism Mouse IC50, mouse Hepa 1c1c7 cells, 200 μM kynurenic acid, 20 hours)
COc1ccc(-c2nc3c4cccc(OCCC(C)(C)OC)c4nc(N[C@@H]4CCCCNC4=O)n3n2)cc1 [Example 996, (3R)-3-{[7-(3-methoxy-3-methylbutoxy)-2-(4-methoxyphenyl)[1,2,4]triazolo[1,5-c]quinazolin-5-yl]amino}azepan-2-one]	–	–	2.8e-07 M	78.1 nM	–
CC(C)Sc1cccc2c1nc(N[C@@H]1CCCCNC1=O)n1nc(-c3cnn(C)c3)nc21 [Example 768]	1.32e-07 M	–	–	–	1220 nM
